Reference: patent publication US20260078341A1, “TREATMENT OF CANCER USING CHIMERIC ANTIGEN RECEPTOR” (Novartis AG, priority 2014, published 2026)
Marks after values point to notes of the source that are not given here.

Assays:
Assay type in all cases: in vivo, human
[1] = tested on: A/H3N2 strain A/Victoria/361/11; test: Seroconversion to heterologous A/H3N2 strain; details: for Percentage of subjects who seroconvert to heterologous strain A/H3N2 A/Victoria/361/11: 4 weeks after seasonal influenza vaccination
[2] = Questionnaires on energy and exercise one year after dosing; details: 0.5 mg daily dosing cohort
H3N2 A/Victoria/210/2009 = test: Hemagglutination inhibition titers after influenza vaccination, A/H3N2 vaccine strain; details: for HI GMT ratio (CV %) A/H3N2: GMT at week 4 post vaccination/GMT at baseline
Description: (§1) The trial was observer-blind because the placebo in the RAD001 0.5 mg daily and 20 mg weekly cohorts differed slightly from the RAD001 tablets in those cohorts. […] The treatment duration for all cohorts was 6 weeks during which time subjects underwent safety evaluations in the clinic every 2 weeks. After subjects had been dosed for 4 weeks, RAD001 steady state levels were measured pre-dose and at one hour post dose. After completing the 6 week course of study drug, subjects were given a 2 week drug free break to reverse any possible RAD001-induced immunosuppression, and then were given a 2012 seasonal influenza vaccination (Agrippal®, Novartis Vaccines and Diagnostics, Siena, Italy) containing the strains H1N1 A/California/07/2009, H3N2 A/Victoria/210/2009, B/Brisbane/60/2008. Four weeks after influenza vaccination, subjects had serum collected for influenza titer measurements. Antibody titers to the 3 influenza vaccine strains as well as to 2 heterologous strains (A/H1N1 strain A/New Jersy/8/76 and A/H3N2 strain A/Victoria/361/11) were measured by standard hemagglutination inhibition assay (Kendal, A P et al. (1982) Concepts and procedures for laboratory-based influenza surveillance. Atlanta: Centers for Disease Control and Prevention B17-B35). Levels of IgG and IgM specific for the A/H1N1/California/07/2009 were measured in serum samples taken before and 4 weeks after influenza vaccination as described previously (Spensieri, F. et al. (2013) Proc. Natl. Acad. Sci. USA 110:14330-14335). Results were expressed as fluorescence intensity.
(§2) The primary analysis of geometric mean titer ratios was done using a normal Bayesian regression model with non-informative priors. This model was fitted to each antibody titer on the log scale. The primary outcome in each model was the Day 84 measurement. The Day 63 measurement was included in the outcome vector. The model fitted using SAS 9.2 proc mixed with the prior statement. The covariance structure of the matrix was considered as unstructured (option type=UN). A flat prior was used. For the secondary analysis of seroconversion rates, logistic regression was used.
(§3) The ability of RAD001 to improve immune function in elderly volunteers was evaluated by measuring the serologic response to the 2012 seasonal influenza vaccine. The hemagglutination inhibition (HI) geometric mean titers (GMT) to each of the 3 influenza vaccine strains at baseline and 4 weeks after influenza vaccination are provided in Table 6. The primary analysis variable was the HI GMT ratio (4 weeks post vaccination/baseline). […] This endpoint was chosen because a 1.2-fold increase in the influenza GMT ratio induced by the MF-59 vaccine adjuvant was associated with a decrease in influenza illness (Iob, A et al. (2005) Epidemiol Infect 133:687-693).
(§4) Rates of seroconversion 4 weeks after influenza vaccination were also evaluated. Seroconversion was defined as the change from a negative pre-vaccination titer (i.e., HI titer <1:10) to post-vaccination HI titer ≥1:40 or at least 4-fold increase from a non-negative (>1:10) pre-vaccination HI titer.

[3] = tested on: influenza vaccine strains and heterologous influenza strains; test: Influenza geometric mean titers 4 weeks after vaccination in RAD001 cohorts; details: relative to placebo
Description: FIGS. 41A and 41B. […] In FIG. 41A, the increase above baseline in influenza geometric mean titers to each of the 3 influenza vaccine strains (H1N1 A/California/07/2009, H3N2 A/Victoria/210/2009, B/Brisbane/60/2008) relative to the increase in the placebo cohort 4 weeks after vaccination is shown for each of the RAD001 dosing cohorts in the intention to treat population. […] FIG. 41B is a graph of the same data as in FIG. 41A for the subset of subjects with baseline influenza titers <=1:40.
The increase above baseline in influenza geometric mean titers to 2 heterologous influenza strains (A/H1N1 strain A/New Jersey/8/76 and A/H3N2 strain A/Victoria/361/11) not contained in the influenza vaccine relative to the increase in the placebo cohort 4 weeks after vaccination is shown for each of the RAD001 dosing cohorts in the intention to treat population. * indicates increase in titer relative to placebo exceeds 1 with a posterior probability of at least 80%.

B/Brisbane/60/2008 = test: Hemagglutination inhibition titers after influenza vaccination, B vaccine strain; details: for HI GMT ratio (CV %) B: GMT at week 4 post vaccination/GMT at baseline
Description: as §1, §2, §3, §4

[4] = Baseline (2 weeks prior to influenza vaccination), RAD001 0.5 mg daily
[5] = Baseline (2 weeks prior to influenza vaccination), RAD001 5 mg weekly
[6] = Baseline (2 weeks prior to influenza vaccination), RAD001 20 mg weekly
[7] = Intention to Treat Population, 0.5 mg
[8] = Intention to Treat Population, 5 mg
[9] = Intention to Treat Population, 20 mg
[10] = Subjects with Baseline Titers <=40, 0.5 mg
[11] = Subjects with Baseline Titers <=40, 5 mg
[12] = Subjects with Baseline Titers <=40, 20 mg
[13] = Week 4 after influenza vaccination, RAD001 0.5 mg daily
[14] = Week 4 after influenza vaccination, RAD001 5 mg weekly
[15] = Week 4 after influenza vaccination, RAD001 20 mg weekly

CO[C@H]1C[C@@H]2CC[C@@H](C)[C@@](O)(O2)C(=O)C(=O)N2CCCC[C@H]2C(=O)O[C@H]([C@H](C)C[C@@H]2CC[C@@H](OCCO)[C@H](OC)C2)CC(=O)[C@H](C)/C=C(\C)[C@@H](O)[C@@H](OC)C(=O)[C@H](C)C[C@H](C)/C=C/C=C/C=C/1C [RAD001, (1R,9S,12S,15R,16E,18R,19R,21R,23S,24E,26E,28E,30S,32S,35R)-1,18-dihydroxy-12-{(1R)-2-[(1S,3R,4R)-4-(2-hydroxyethoxy)-3-methoxycyclohexyl]-1-methylethyl}-19,30-dimethoxy-15,17,21,23,29,35-hexamethyl-11,36-dioxa-4-azatricyclo[30.3.1.0^4,9]hexatriaconta-16,24,26,28-tetraene-2,3,10,14,20-pentaone]
Percentage of subjects who seroconvert to heterologous strain A/H3N2 A/Victoria/361/11 ([1]; RAD001 0.5 mg daily): 38% | Percentage of subjects who seroconvert to heterologous strain A/H3N2 A/Victoria/361/11 ([1]; RAD001 5 mg weekly): 39%* | Percentage of subjects who seroconvert to heterologous strain A/H3N2 A/Victoria/361/11 ([1]; RAD001 20 mg weekly): 40%* | H3N2 heterologous strain seroconversion rate ([1]; pooled RAD001 cohorts, versus 20% placebo, p=0.007): 39% | energy and exercise ability as compared to placebo [2]: increased energy and exercise ability | HI GMT (CV %) A/H3N2 (H3N2 A/Victoria/210/2009; [4]): 106.8 (168.2) | HI GMT (CV %) A/H3N2 (H3N2 A/Victoria/210/2009; [5]): 126.04 (162.6) | HI GMT (CV %) A/H3N2 (H3N2 A/Victoria/210/2009; [6]): 137.1 (211.5) | HI GMT ratio (CV %) A/H3N2 (H3N2 A/Victoria/210/2009; RAD001 0.5 mg daily): 2.1 (152.6) | HI GMT ratio (CV %) A/H3N2 (H3N2 A/Victoria/210/2009; RAD001 5 mg weekly): 2.0 (189.2) | HI GMT ratio (CV %) A/H3N2 (H3N2 A/Victoria/210/2009; RAD001 20 mg weekly): 2.1 (277.3) | Percent of subjects with seroconversion to influenza 4 weeks after vaccination, H3N2 (H3N2 A/Victoria/210/2009; [7]): 27% | Percent of subjects with seroconversion to influenza 4 weeks after vaccination, H3N2 (H3N2 A/Victoria/210/2009; [8]): 24% | Percent of subjects with seroconversion to influenza 4 weeks after vaccination, H3N2 (H3N2 A/Victoria/210/2009; [9]): 25% | Percent of subjects with seroconversion to influenza 4 weeks after vaccination, H3N2 (H3N2 A/Victoria/210/2009; [10]): 64% | Percent of subjects with seroconversion to influenza 4 weeks after vaccination, H3N2 (H3N2 A/Victoria/210/2009; [11]): 53% | Percent of subjects with seroconversion to influenza 4 weeks after vaccination, H3N2 (H3N2 A/Victoria/210/2009; [12]): 71% | HI GMT (CV %) A/H3N2 (H3N2 A/Victoria/210/2009; [13]): 194.4 (129.1) | HI GMT (CV %) A/H3N2 (H3N2 A/Victoria/210/2009; [14]): 223.0 (118.8) | HI GMT (CV %) A/H3N2 (H3N2 A/Victoria/210/2009; [15]): 223.0 (163.6) | titers to heterologous influenza strains [3]: increase in titers to heterologous influenza strains as compared to placebo | titers to influenza vaccine strains [3]: increase in titers to influenza vaccine strains as compared to placebo | HI GMT (CV %) B (B/Brisbane/60/2008; [4]): 44.2 (96.6) | HI GMT (CV %) B (B/Brisbane/60/2008; [5]): 64.8 (87.3) | HI GMT (CV %) B (B/Brisbane/60/2008; [6]): 58.0 (156.0) | HI GMT ratio (CV %) B (B/Brisbane/60/2008; RAD001 0.5 mg daily): 2.5 (111.2) | HI GMT ratio (CV %) B (B/Brisbane/60/2008; RAD001 5 mg weekly): 2.2 (112.8) | HI GMT ratio (CV %) B (B/Brisbane/60/2008; RAD001 20 mg weekly): 2.1 (126.5) | Percent of subjects with seroconversion to influenza 4 weeks after vaccination, B (B/Brisbane/60/2008; [7]): 27% | Percent of subjects with seroconversion to influenza 4 weeks after vaccination, B (B/Brisbane/60/2008; [8]): 22% | Percent of subjects with seroconversion to influenza 4 weeks after vaccination, B (B/Brisbane/60/2008; [9]): 19% | Percent of subjects with seroconversion to influenza 4 weeks after vaccination, B (B/Brisbane/60/2008; [10]): 40* Percent | Percent of subjects with seroconversion to influenza 4 weeks after vaccination, B (B/Brisbane/60/2008; [11]): 33% | Percent of subjects with seroconversion to influenza 4 weeks after vaccination, B (B/Brisbane/60/2008; [12]): 28% | HI GMT (CV %) B (B/Brisbane/60/2008; [13]): 98.4 (94.8) | HI GMT (CV %) B (B/Brisbane/60/2008; [14]): 117.3 (99.9) | HI GMT (CV %) B (B/Brisbane/60/2008; [15]): 99.2 (124.1)
